Among the data in PubChem BioAssay (NCI) are TGI values, retold here.

Experiment in all cases: growth of human tumour cells (NCI), 48 h
The test system of experiment [1] is KM12 colon.
Experiment [2] concerns SK-MEL-2 melanoma.
Experiment [3] relates to MDA-N.
For experiment [4], the system named is A498 renal.
Experiment [5] deals with TK-10 renal.
For experiment [6], the system named is HCT-15 colon.
Experiment [7] has as its system SK-OV-3 ovarian.
Experiment [8] has as its system SN12C renal.
Experiment [9] concerns OVCAR-5 ovarian.
For experiment [10], the system named is NCI-H460 lung.
Experiment [11] has as its system HT29 colon.
For experiment [12], the system named is K-562 leukemia.
For experiment [13], the system named is CAKI-1 renal.
In experiment [14] the test system is PC-3 prostate.
Experiment [15] relates to UACC-62 melanoma.
Experiment [16] deals with CCRF-CEM leukemia.
Experiment [17] has as its system SNB-75 CNS.

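Where inhibition never reached the appropriate level, the endpoint shown equals the highest concentration tested. Otherwise, values were interpolated linearly from a five-concentration, 48-hour dose response in 96-well plates. At the TGI there is no net growth.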

In the case of `COC(=O)CC1(O)C(C=C(C)C)C(C(=O)OC)C(=O)C(C(=O)OC)C1C(=O)OC` (stereo not given), the TGI in [1], in [2], in experiment [3], in experiment [4], in experiment [5] and in experiment [6] was more than 100 µM in each case. In addition, the TGI in experiment [7], in experiment [8], in experiment [9], in [10], in experiment [11] and in experiment [12] was more than 100 µM in each case. Moreover, the TGI in experiment [13], in [14], in [15] and in experiment [16] was more than 100 µM throughout.

Take `CCC(/C=C/c1ccccc1)=N\NC(=S)N/N=C(/C=C/c1ccccc1)CC`: the TGI was more than 100 µM in [17]; more than 100 µM in experiment [1]; more than 100 µM in experiment [3]; 59.8 µM in experiment [4]; more than 100 µM in [5]; more than 100 µM in [6]. The TGI in experiment [7] was more than 100 µM; in [8], more than 100 µM; in [10] it was more than 100 µM; in [11], more than 100 µM; in experiment [12] it was 98.8 µM; in experiment [13], more than 100 µM. The TGI in [14], in experiment [15] and in [16] was more than 100 µM in each case.

As for `COc1ccc(S(=O)Cc2cc(OC)ccc2OC)cc1` (stereo not given), the TGI in experiment [17], in experiment [1], in [3], in [4], in [5] and in experiment [6] was more than 100 µM in each case. In addition, the TGI in experiment [7], in experiment [8], in experiment [9], in experiment [10], in experiment [11] and in experiment [12] was more than 100 µM throughout. For the same compound, the TGI in experiment [13], in experiment [14], in [15] and in [16] was more than 100 µM in each case.

Turning to `CCOC(=O)CC[C@@H](NC(=O)c1ccc(NCc2ccc3nc(OC)c(OC)nc3c2)cc1)C(=O)OCC`, the TGI in [17] is 24.9 µM; in [1], more than 100 µM; in experiment [2], 40.6 µM; in [3], more than 85.2 µM; in experiment [5], more than 100 µM; in experiment [6], more than 100 µM. The TGI is more than 100 µM in [7]; more than 100 µM in experiment [8]; more than 100 µM in experiment [9]; 44.3 µM in experiment [10]; more than 100 µM in experiment [11]; more than 100 µM in experiment [12]. Further, the TGI in experiment [13] was more than 100 µM; in experiment [14], more than 100 µM; in experiment [15], 32 µM; in experiment [16] it was more than 100 µM.

Turning to `Cc1cc2c(cc1Cl)Sc1nnc(C)n1S2(=O)=O`, the TGI amounted to 47.5 µM in experiment [17]; 30.9 µM in experiment [1]; 29.7 µM in experiment [3]; 40.2 µM in experiment [4]; 56.9 µM in experiment [5]; 25.5 µM in experiment [6]. In addition, the TGI stood at 75.2 µM in experiment [7]; 34.3 µM in experiment [8]; 97.7 µM in [9]; 78.5 µM in experiment [10]; 45.8 µM in experiment [11]; 35.4 µM in experiment [12]. For the same compound, the TGI is 29.9 µM in experiment [13], 37 µM in experiment [14], 30.6 µM in experiment [15] and 34.1 µM in experiment [16].

On to `O=C(CN=C(CN(c1ccccc1)c1ccccc1)Oc1c([N+](=O)[O-])cc([N+](=O)[O-])cc1[N+](=O)[O-])N1CCNCC1`, for which the TGI in [17], in [1], in [3], in experiment [5], in experiment [6] and in experiment [7] was more than 100 µM throughout. In addition, the TGI in experiment [8], in experiment [9], in experiment [10], in experiment [11], in experiment [12] and in experiment [14] was more than 100 µM throughout. Moreover, the TGI in [15] and in [16] was more than 100 µM each time.

On to `Cc1cc2nc3c(C(O)CO)nn(-c4ccccc4)c3nc2cc1C` (stereo not given), for which the TGI stood at 51.9 µM in [17]; 33.4 µM in experiment [1]; 56.2 µM in [2]; 40.6 µM in [3]; 34.9 µM in [4]; 35.4 µM in experiment [5]. For the same compound, the TGI turned out to be 42.6 µM in [6]; 32.4 µM in experiment [8]; 44.9 µM in [9]; 37.4 µM in [10]; 46.5 µM in experiment [11]; 59.3 µM in [12]. Besides, the TGI in [13] was found to be 33.2 µM; in experiment [14], 32.7 µM.

Regarding `C=CCC1(O)c2cccc(O)c2C(=O)c2cccc(O)c21` (stereo not given), the TGI in experiment [17] stood at 52 µM; in experiment [1] it was 85 µM; in experiment [2], 31.1 µM; in [3], 31.1 µM; in experiment [4], 37 µM; in experiment [5] it was 73.5 µM. The TGI in experiment [6] is 51.8 µM; in experiment [9], more than 100 µM; in [10], 48 µM; in [11], 64.1 µM; in experiment [12], more than 100 µM; in experiment [13], 68.2 µM. This compound also came in with a TGI in experiment [14] of 47.3 µM.

As to `C(/C=N/NC1=NCCN1)=N\NC1=NCCN1`, the TGI in [17], in experiment [1], in experiment [2], in experiment [3], in [4] and in experiment [6] was more than 100 µM throughout. The TGI is more than 100 µM in experiment [7]; more than 100 µM in [9]; more than 100 µM in [10]; more than 100 µM in [11]; 31.6 µM in [12]; more than 100 µM in experiment [13]. Besides, the TGI in experiment [14], in experiment [15] and in experiment [16] was more than 100 µM each time.

For the compound `CC1=NN(C(=O)CC(=O)Nc2cccc(Cl)c2)C(=O)C1N=Nc1ccc(S(=O)(=O)c2ccc(N=NC3C(=O)N(C(=O)CC(=O)Nc4cccc(Cl)c4)N=C3C)cc2)cc1` (stereo not given), the TGI in experiment [17], in experiment [1], in experiment [2], in experiment [3], in experiment [5] and in experiment [6] was more than 100 µM in each case. Moreover, the TGI in experiment [7], in experiment [8], in [9], in experiment [10], in experiment [11] and in [12] was more than 100 µM each time. The TGI in [13], in [14], in experiment [15] and in experiment [16] was more than 100 µM in each case.

Regarding `CCOC(=O)c1cc2cc(CSc3ccccc3)ccc2oc1=O`, the TGI in [17], in experiment [1], in experiment [2], in [3], in experiment [5] and in experiment [6] was more than 100 µM in each case. Moreover, the TGI in experiment [7], in experiment [8], in experiment [9], in experiment [10], in experiment [11] and in experiment [12] was more than 100 µM in each case. Besides, the TGI in [13], in [14], in experiment [15] and in [16] was more than 100 µM in each case.

Turning to `CCOP(=O)(OCC)C(Cc1ccccc1)N=C(c1ccccc1)c1ccccc1` (stereo not given), the TGI was found to be 24.2 µM in experiment [17]; 32.2 µM in [1]; 38.2 µM in experiment [2]; 29.1 µM in [3]; 23.6 µM in experiment [5]; 25 µM in experiment [6]. The TGI was 28.5 µM in experiment [7]; 35.2 µM in experiment [8]; 28.1 µM in [9]; 31.9 µM in [10]; 27.6 µM in [11]; 41.9 µM in experiment [12]. The TGI in [13] turned out to be 31.6 µM; in experiment [14], 16.8 µM; in experiment [15], 26.1 µM; in experiment [16], 37.1 µM.

For the compound `CC1(C)N=C(N)N=C(N)N1c1ccc(CCCCc2ccc(Cl)cc2Cl)cc1`, the TGI in experiment [1] is 2.19 µM; in [2], 13.5 µM; in experiment [3], 2.67 µM; in [4], 28.8 µM; in [5], 15.7 µM; in experiment [6], more than 100 µM. The TGI in [7] is 24.7 µM; in experiment [8], 12.7 µM; in [9], 20.9 µM; in experiment [10] it was 2.48 µM; in experiment [11] it was 13 µM; in experiment [12], more than 100 µM. For the same compound, the values for the TGI in experiment [13], in experiment [14] and in experiment [16] were 9.08 µM, 3.27 µM and 76 µM, respectively.

`COc1ccccc1/C=C1/Sc2scc(CC(=O)Nc3ccccc3)[n+]2C1=O`: the TGI in experiment [17] was more than 100 µM; in experiment [1], more than 100 µM; in experiment [2] it was 73.3 µM; in [3], 69.9 µM; in experiment [5], 74.3 µM; in [6], more than 100 µM. Moreover, the TGI in [7] is 71.7 µM; in experiment [8] it was more than 100 µM; in experiment [9], more than 100 µM; in experiment [10], more than 100 µM; in experiment [11], more than 100 µM; in [13] it was more than 100 µM. In addition, the TGI in experiment [14] worked out at 93.3 µM; in [15], 45.1 µM; in [16], 51.7 µM.

As for `N#Cc1nc(Cc2ccccc2)oc1N`, the TGI in experiment [1], in [2], in experiment [3], in experiment [5], in experiment [6] and in [7] was more than 100 µM throughout. For the same compound, the TGI in experiment [8], in experiment [9], in experiment [10], in experiment [11], in experiment [12] and in experiment [13] was more than 100 µM each time. Further, the TGI in experiment [14] and in [16] was more than 100 µM in each case.

For `C/C=C/OC1C(C2COC(C)(C)O2)OC2OC(C)(C)OC21` (stereo not given), the TGI in experiment [17], in experiment [2], in [3], in [4], in experiment [5] and in experiment [6] was more than 100 µM throughout. Besides, the TGI in [7], in [9], in [10], in experiment [11], in [12] and in [13] was more than 100 µM throughout. For the same compound, the TGI in [14] and in experiment [16] was more than 100 µM each time.

With `Cn1c2ccccc2n2c3ccccc3c(=S)c(C#N)c12`, the TGI in [17], in experiment [1], in experiment [2], in [3], in experiment [4] and in experiment [5] was more than 100 µM each time. Besides, the TGI in [6], in experiment [7], in [9], in experiment [10], in experiment [11] and in experiment [12] was more than 100 µM in each case. Besides, the TGI in experiment [13], in [14], in experiment [15] and in [16] was more than 100 µM throughout.

As for `FC(F)(F)C1(C(F)(F)F)OC(Cl)(Cl)C(Cl)(Cl)O1`, the TGI in [1], in experiment [2], in experiment [3], in [4], in [5] and in [6] was more than 10 µM each time. For the same compound, the TGI in experiment [7], in [9], in [10], in experiment [11], in experiment [13] and in experiment [14] was more than 10 µM in each case. In experiment [15], this compound displayed a TGI of more than 10 µM.
